Each structure is given as a SMILES string.

The target of the assay is T1, ArpA (Streptomyces griseus, UniProt Q9ZN78).
T1 sequence (Q9ZN78 1-276): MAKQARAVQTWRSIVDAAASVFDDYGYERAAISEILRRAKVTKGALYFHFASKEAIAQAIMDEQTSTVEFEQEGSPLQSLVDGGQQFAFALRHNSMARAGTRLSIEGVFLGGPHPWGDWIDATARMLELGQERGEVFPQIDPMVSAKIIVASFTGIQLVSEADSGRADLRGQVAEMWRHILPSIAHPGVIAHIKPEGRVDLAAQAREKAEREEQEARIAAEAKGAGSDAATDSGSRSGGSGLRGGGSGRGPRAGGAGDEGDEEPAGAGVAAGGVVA
Put plainly: E. coli pTOTAL biosensor, GFP derepression dose-response. In kind it is cell-based.

In the case of `CC(C)CCCCC(=O)C1C(=O)OC[C@H]1CO` (some centres unmarked) [A-factor], the concentration for a half-maximal effect (EC50) (in general, the midpoint of the concentration-response curve) is 0.39 µM. This counts as sub-micromolar.

`CC(C)CCCC[C@@H](O)[C@@H]1C(=O)OC[C@H]1CO` [SCB1] gave a half-maximal effective concentration (EC50) of 18.1 µM. This EC50 is about 46-fold higher than that of the molecule before.

The record behind these values is paper doi:10.1101/2025.09.05.673737v1 (biorxiv, 2025).
